The assay concerns the target Forkhead box protein O1 (Homo sapiens) (UniProt Q12778). The assay can be described thus: Inhibition of FOXO1a nuclear export in PTEN-deficient cells. Format: cell-based.

Calls of active or inactive are those of the source. The calls are words filed in the database; no cut-off is given here.

Forkhead box protein O1 (Homo sapiens), sequence (Q12778 whole entry): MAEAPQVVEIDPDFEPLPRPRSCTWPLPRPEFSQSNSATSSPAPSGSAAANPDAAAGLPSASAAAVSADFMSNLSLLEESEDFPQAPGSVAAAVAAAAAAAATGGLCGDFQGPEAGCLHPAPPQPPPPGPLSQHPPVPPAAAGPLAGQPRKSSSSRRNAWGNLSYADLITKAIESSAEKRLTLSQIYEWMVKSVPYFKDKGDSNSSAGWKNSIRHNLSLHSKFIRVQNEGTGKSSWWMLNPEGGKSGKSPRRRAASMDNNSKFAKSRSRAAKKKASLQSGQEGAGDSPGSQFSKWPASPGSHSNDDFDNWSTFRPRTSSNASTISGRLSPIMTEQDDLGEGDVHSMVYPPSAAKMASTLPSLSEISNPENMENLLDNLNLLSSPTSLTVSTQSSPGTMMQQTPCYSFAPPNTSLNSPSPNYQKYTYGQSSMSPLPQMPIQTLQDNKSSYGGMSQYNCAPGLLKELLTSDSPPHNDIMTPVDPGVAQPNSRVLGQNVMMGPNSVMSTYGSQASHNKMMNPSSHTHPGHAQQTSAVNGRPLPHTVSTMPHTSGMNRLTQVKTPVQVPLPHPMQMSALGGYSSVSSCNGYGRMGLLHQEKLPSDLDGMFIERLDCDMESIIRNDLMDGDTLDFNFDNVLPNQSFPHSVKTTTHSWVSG

On to `CNCCCOc1c(Br)cc(CCNC(=O)/C(Cc2ccc(OC)c(Br)c2)=N/O)cc1Br`, for which the result was inactive.
